Data reported in patent publication US9617263B2, “Phenyl-triazolo-pyridine compounds” (Eli Lilly and Company, priority 2014, dated 2017).

Assays:
hGPR40 = hGPR40 (Homo sapiens, UniProt O14842); assay: Calcium Flux Primary Assay (FLIPR, Calcium 4 Dye); format: cell-based; set-up: expressed in transfected cells; host or cells: HEK293; conditions: HEK293, HEK293 cells over expressing human GPR40; vs natural ligand linoleic acid; read-out: efficacy (maximal response compared to linoleic acid)
Procedure: HEK293 cells over expressing the human GPR40 cDNA maintained in Dulbecco's modified Eagle's medium with F12 medium in 3:1 ratio supplemented with 10% FBS and 800 μg/ml geneticin at 37° C. and 5% CO2 are employed for the study. Agonist assays are performed using a Calcium 4 Dye assay kit (Molecular Devices) in the presence or absence of 0.1% fatty acid free BSA in the assay buffer (1×HBSS (Hank's Balanced Salt Solution) & 20 mM HEPES (4-(2-hydroxyethyl)-1-piperazineethanesulfonic acid). Receptor activation is measured as an increase in intracellular calcium using the Fluorometric Imaging Plate Reader (FLIPR). Maximum change in fluorescence over the base line is used to determine the agonist response. The EC50 value of the compound is calculated using Excel Fit software (version 4; IDBS) by plotting concentration vs relative fluorescence units (RFUs).

Zucker fa/fa rats = assay: Acute oral glucose tolerance test (OGTT); format: in vivo, rat; conditions: oral; Example 1 at 1, 3 and 10 mg/kg, TAK875 at 1 mg/kg; p<0.05
Procedure: OGTTs are performed in Zucker fa/fa rats, a rodent model of insulin resistance, after 1 and 21 days of orally administered material at 1.0, 3.0 and 10 mg/kg. TAK875 at 1 mg/kg served as the positive control. The OGTTs are performed one hour post compound administration with blood samples taken for determination of glucose and insulin levels at 10, 20, 40, 60, and 120 minutes post glucose administration.

Male Balb/c mice = assay: Intraperitoneal glucose tolerance test (IPGTT); format: in vivo, mouse; conditions: 30 and 60 minute time points; Example 1 at 10, 30, 100 mg/kg oral; positive control 10 mg/kg
Procedure: To examine the ability of Examples 1 to 20 to activate GPR40 in-vivo resulting in desired glucose lowering efficacy, i.e. reduction in plasma glucose levels, an intraperitoneal glucose tolerance test (ipGTT) study is completed, and the data is shown for the compound tested below.
Male Balb/c (Albino mice) mice (8-9 weeks of age) are single housed, and fed with normal rodent chow diet and water ad libitum. Animals are weighed; randomized by body weight; and their daily body weights are recorded. Animals are dosed daily using a formulation carrying methylcellulose and tween-80. On the night before the study, animals are fasted. In the morning, animals are dosed orally with compound or vehicle alone 60 minutes prior to the glucose tolerance test (glucose 2 g/kg, i.p.). Blood glucose levels are determined from tail bleeds taken at 0, 3, 7, 15, 30, and 60 min after glucose challenge. […] Percent lowering in glucose is calculated from the AUC data of the compound with respect to the AUC of vehicle group. The test compound is orally administered at 0.3, 1.0, 3.0, 10, 30, or 100 mg/kg, and a positive control (3-[4-(2-methyl-benzyloxy)-phenyl]-hex-4-ynoic acid, see WO2005086661 (TAK875).) is administered at 10 mg/kg. […] Glucose levels are lowered at the 30, and 60 minute time points for the positive control.

hGPR40, sequence (O14842 whole entry): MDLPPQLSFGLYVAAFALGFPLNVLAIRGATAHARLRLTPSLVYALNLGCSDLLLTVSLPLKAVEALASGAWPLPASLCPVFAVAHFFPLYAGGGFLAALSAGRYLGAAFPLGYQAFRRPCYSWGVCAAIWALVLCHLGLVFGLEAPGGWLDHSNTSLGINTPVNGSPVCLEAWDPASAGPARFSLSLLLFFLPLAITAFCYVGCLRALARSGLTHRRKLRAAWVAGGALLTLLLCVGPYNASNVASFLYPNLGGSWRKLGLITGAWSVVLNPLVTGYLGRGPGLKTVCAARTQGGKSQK

Row | Compound | Emax (hGPR40) [%] | AUCs for glucose lowering (Zucker fa/fa rats) | Glucose levels compared to vehicle control (Male Balb/c mice)
1 | CC#C[C@@H](CC(=O)O)c1ccc(OCc2cc(-c3ccc(OC)cc3)cn3ncnc23)cc1 [Example 2, (S)-3-{4-[6-(4-Methoxy-phenyl)-[1,2,4]triazolo[1,5-a]pyridin-8-ylmethoxy]-phenyl}-hex-4-ynoic acid] | > 35 |  | 
2 | CC#C[C@@H](CC(=O)O)c1ccc(OCc2cc(-c3c(C)cccc3F)cn3ncnc23)cc1 [Example 3, (S)-3-{4-[6-(2-Fluoro-6-methyl-phenyl)-[1,2,4]triazolo[1,5-a]pyridin-8-ylmethoxy]-phenyl}-hex-4-ynoic acid] | > 35 |  | 
3 | CC#C[C@@H](CC(=O)O)c1ccc(OCc2cc(-c3ccc(OC)cc3C)cn3ncnc23)cc1 [Example 4, (S)-3-{4-[6-(4-Methoxy-2-methyl-phenyl)-[1,2,4]triazolo[1,5-a]pyridin-8-ylmethoxy]-phenyl}-hex-4-ynoic acid] | > 35 |  | 
4 | CC#C[C@@H](CC(=O)O)c1ccc(OCc2cc(-c3c(C)cc(OC)cc3C)cn3ncnc23)cc1 [Example 5, (S)-3-{4-[6-(4-Methoxy-2,6-dimethyl-phenyl)-[1,2,4]triazolo[1,5-a]pyridin-8-ylmethoxy]-phenyl}-hex-4-ynoic acid] | > 35 |  | 
5 | CC#C[C@@H](CC(=O)O)c1ccc(OCc2cc(-c3cc(OC)ccc3F)cn3ncnc23)cc1 [Example 6] | > 35 |  | 
6 | CC#C[C@@H](CC(=O)O)c1ccc(OCc2cc(-c3ccc(OCCCS(C)(=O)=O)cc3C)cn3ncnc23)cc1 [Example 7, (S)-3-(4-{6-[4-(3-Methanesulfonyl-propoxy)-2-methyl-phenyl]-[1,2,4]triazolo[1,5-a]pyridin-8-ylmethoxy}-phenyl)-hex-4-ynoic acid] | > 35 |  | 
7 | CC#C[C@@H](CC(=O)O)c1ccc(OCc2cc(-c3ccc(OCCC(C)(C)O)cc3C)cn3ncnc23)cc1 [Example 8, (S)-3-(4-{6-[4-(3-Hydroxy-3-methyl-butoxy)-2-methyl-phenyl]-[1,2,4]triazolo[1,5-a]pyridin-8-ylmethoxy}-phenyl)-hex-4-ynoic acid] | > 35 |  | 
8 | CC#C[C@@H](CC(=O)O)c1ccc(OCc2cc(-c3ccc(C(C)C)cc3)cn3ncnc23)cc1 [Example 9, (S)-3-{4-[6-(4-Isopropyl-phenyl)-[1,2,4]triazolo[1,5-a]pyridin-8-ylmethoxy]-phenyl}-hex-4-ynoic acid] | > 35 |  | 
9 | CC#C[C@@H](CC(=O)O)c1ccc(OCc2cc(-c3c(C)cccc3C)cn3ncnc23)cc1 [Example 11, (S)-3-{4-[6-(2,6-Dimethyl-phenyl)-[1,2,4]triazolo[1,5-a]pyridin-8-ylmethoxy]-phenyl}-hex-4-ynoic acid] | > 35 |  | 
10 | Cc1cc(OCCCS(C)(=O)=O)cc(C)c1-c1cccc(COc2ccc3c(c2)OC[C@H]3CC(=O)O)c1 [TAK875, fasiglifam, reference compound] |  | statistically significant | lowered

Further lines, with some results ahead:

Row | Emax (hGPR40) [%] | Compound | AUCs for glucose lowering (Zucker fa/fa rats) | Glucose levels compared to vehicle control (Male Balb/c mice)
11 | > 35 | CC#C[C@@H](CC(=O)O)c1ccc(OCc2cc(-c3cc(Cl)ccc3C)cn3ncnc23)cc1 [Example 12] |  | 
12 | > 35 | CC#C[C@@H](CC(=O)O)c1ccc(OCc2cc(-c3ccc(C#N)cc3)cn3ncnc23)cc1 [Example 13, (S)-3-{4-[6-(4-Cyano-phenyl)-[1,2,4]triazolo[1,5-a]pyridin-8-ylmethoxy]-phenyl}-hex-4-ynoic acid] |  | 
13 | > 35 | CC#C[C@@H](CC(=O)O)c1ccc(OCc2cc(-c3ccc(C(F)F)cc3)cn3ncnc23)cc1 [Example 15, (S)-3-{4-[6-(4-Difluoromethyl-phenyl)-[1,2,4]triazolo[1,5-a]pyridin-8-ylmethoxy]-phenyl}-hex-4-ynoic acid] |  | 
14 | > 35 | CC#C[C@@H](CC(=O)O)c1ccc(OCc2cc(-c3ccc(OCC#N)cc3C)cn3ncnc23)cc1 [Example 16, (S)-3-{4-[6-(4-Cyanomethoxy-2-methyl-phenyl)-[1,2,4]triazolo[1,5-a]pyridin-8-ylmethoxy]-phenyl}-hex-4-ynoic acid] |  | 
15 | > 35 | CC#C[C@@H](CC(=O)O)c1ccc(OCc2cc(-c3ccc(S(C)(=O)=O)cc3)cn3ncnc23)cc1 [Example 17] |  | 
16 | > 35 | CC#C[C@@H](CC(=O)O)c1ccc(OCc2cc(-c3ccc(S(N)(=O)=O)cc3C)cn3ncnc23)cc1 [Example 18, (S)-3-{4-[6-(2-Methyl-4-sulfamoyl-phenyl)-[1,2,4]triazolo[1,5-a]pyridin-8-ylmethoxy]-phenyl}-hex-4-ynoic acid] |  | 
17 | > 35 | CC#C[C@@H](CC(=O)O)c1ccc(OCc2cc(-c3ccc(C(C)(C)C#N)cc3)cn3ncnc23)cc1 [Example 19, (S)-3-(4-{6-[4-(Cyano-dimethyl-methyl)-phenyl]-[1,2,4]triazolo[1,5-a]pyridin-8-ylmethoxy}-phenyl)-hex-4-ynoic acid] |  | 
18 | > 35 | CC#C[C@@H](CC(=O)O)c1ccc(OCc2cc(-c3ccc(OC(F)F)cc3C)cn3ncnc23)cc1 [Example 20, (S)-3-{4-[6-(4-Difluoromethoxy-2-methyl-phenyl)-[1,2,4]triazolo[1,5-a]pyridin-8-ylmethoxy]-phenyl}-hex-4-ynoic acid] |  | 
